“And” between values parts separate entries of the source, which are not always exact repeats. Identical values can stand only once. Inconclusive results and toxic doses are left out.
Tested on: L1210 leukemia ip in BDF1 mice, survival T/C
Assay: NCI In Vivo Anticancer Drug Screen. Data for tumor model L1210 Leukemia (intraperitoneal) in B6D2F1 (BDF1) mice
Conditions: endpoint: mean survival time, higher = longer survival
Summary of the method: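 In this screen, tumor-bearing mice given compound are compared to those given vehicle, and their survival values are reported as a treated-to-control quotient.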

[1] = dose: 100.0 mg/kg/injection, schedule: Q01DX001 (ip), vehicle: saline
[2] = dose: 200.0 mg/kg/injection, schedule: Q01DX001 (ip), vehicle: saline
[3] = dose: 100.0 mg/kg/injection, schedule: Q01DX009 (ip), vehicle: saline with Tween-80
[4] = dose: 12.5 mg/kg/injection, schedule: Q01DX009 (ip), vehicle: saline
[5] = dose: 25.0 mg/kg/injection, schedule: Q01DX009 (ip), vehicle: saline
[6] = dose: 50.0 mg/kg/injection, schedule: Q01DX009 (ip), vehicle: saline

O=[N+]([O-])c1ccc(F)c(CNc2ncnc3c2ncn3C2CCCCO2)c1 (configuration not stated)
T/C (dose: 100.0 mg/kg/injection, schedule: Q01DX009 (ip), vehicle: Klucel (hydroxypropylcellulose) (HPC)): 100 % of control
T/C (dose: 200.0 mg/kg/injection, schedule: Q01DX009 (ip), vehicle: Klucel (hydroxypropylcellulose) (HPC)): 106 % of control
T/C (dose: 400.0 mg/kg/injection, schedule: Q01DX009 (ip), vehicle: Klucel (hydroxypropylcellulose) (HPC)): 100 % of control

CC(C)C1SC(=S)NC1=O (configuration not stated)
T/C [1]: 88 % of control
T/C [2]: 95 % of control

CCCCSC(=O)C(O)c1ccccc1 (configuration not stated)
T/C [1]: 105 % of control
T/C [2]: 104 % of control
T/C (dose: 400.0 mg/kg/injection, schedule: Q01DX001 (ip), vehicle: saline): 105 % of control

CCCc1cc(CCC)nc(NNc2nc(CCC)cc(CCC)n2)n1
T/C [3]: 104 % of control
T/C (dose: 200.0 mg/kg/injection, schedule: Q01DX009 (ip), vehicle: saline with Tween-80): 96 % of control
T/C (dose: 400.0 mg/kg/injection, schedule: Q01DX009 (ip), vehicle: saline with Tween-80): 110 % of control

CN=C(NC)c1ccc(NC(=O)c2ccc(C(=O)Nc3ccc(C(=NC)NC)cc3)c(N)c2)cc1
T/C (dose: 0.28 mg/kg/injection, schedule: Q01DX Z (ip), vehicle: water): 98 % of control
T/C (dose: 0.56 mg/kg/injection, schedule: Q01DX Z (ip), vehicle: water): 93 % of control
T/C (dose: 1.12 mg/kg/injection, schedule: Q01DX Z (ip), vehicle: water): 170 % of control
T/C (dose: 2.25 mg/kg/injection, schedule: Q01DX Z (ip), vehicle: water): 157 % of control
T/C (dose: 4.5 mg/kg/injection, schedule: Q01DX Z (ip), vehicle: carboxymethylcellulose (CMC)): 180 % of control
T/C (dose: 9.0 mg/kg/injection, schedule: Q01DX Z (ip), vehicle: carboxymethylcellulose (CMC)): 159 % of control
T/C (dose: 36.0 mg/kg/injection, schedule: Q01DX Z (ip), vehicle: carboxymethylcellulose (CMC)): 117 % of control
T/C (dose: 50.0 mg/kg/injection, schedule: Q01DX Z (oral), vehicle: water): 102 % of control
T/C (dose: 100.0 mg/kg/injection, schedule: Q01DX Z (oral), vehicle: water): 105 % of control
T/C (dose: 200.0 mg/kg/injection, schedule: Q01DX Z (oral), vehicle: water): 103 % of control
T/C (dose: 400.0 mg/kg/injection, schedule: Q01DX Z (oral), vehicle: water): 103 % of control

CCOC(=O)c1ccc(C(=O)OCC)nc1
T/C [4]: 109 % of control
T/C [5]: 94 % of control
T/C [6]: 101 % of control
T/C [3]: 87 % of control
T/C (dose: 100.0 mg/kg/injection, schedule: Q04DX003 (ip), vehicle: saline with Tween-80): 101 % of control
T/C (dose: 200.0 mg/kg/injection, schedule: Q04DX003 (ip), vehicle: saline with Tween-80): 106 % of control
T/C (dose: 400.0 mg/kg/injection, schedule: Q04DX003 (ip), vehicle: saline with Tween-80): 103 % of control

O=[N+]([O-])C1CCCCC1O (configuration not stated)
T/C (dose: 10.0 mg/kg/injection, schedule: Q01DX001 (ip), vehicle: saline): 103 % of control
T/C (dose: 20.0 mg/kg/injection, schedule: Q01DX001 (ip), vehicle: saline): 105 % of control
T/C (dose: 40.0 mg/kg/injection, schedule: Q01DX001 (ip), vehicle: saline): 100 % of control

Nc1nc([Se])c2ncn(C3OC(CO)C(O)C3O)c2n1 (configuration not stated)
T/C (dose: 10.0 mg/kg/injection, schedule: Q01DX009 (ip), vehicle: saline): 179 % of control
T/C [4]: 208 % of control and 213 % of control
T/C (dose: 20.0 mg/kg/injection, schedule: Q01DX009 (ip), vehicle: saline): 182 % of control
T/C [5]: 201 % of control and 229 % of control
T/C [6]: 91 % of control

COc1cc(N)c2nccc(N(C)C)c2c1
T/C (dose: 100.0 mg/kg/injection, schedule: Q01DX009 (ip), vehicle: saline): 99 % of control
T/C (dose: 100.0 mg/kg/injection, schedule: Q04DX003 (ip), vehicle: saline): 97 % of control
T/C (dose: 200.0 mg/kg/injection, schedule: Q01DX009 (ip), vehicle: saline): 107 % of control
T/C (dose: 200.0 mg/kg/injection, schedule: Q04DX003 (ip), vehicle: saline): 103 % of control
T/C (dose: 400.0 mg/kg/injection, schedule: Q04DX003 (ip), vehicle: saline): 101 % of control

Reference: PubChem BioAssay AID248 (DTP/NCI, 2004)
